Results as given in ChEMBL document CHEMBL3272338, “Bis-basic-substituted polycyclic aromatic compounds. A new class of antiviral agents. 8. Bis-basic derivatives of carbazole, dibenzofuran, and dibenzothiophene” (1977).

system: Encephalomyocarditis virus; experiment: Antiviral activity against Encephalomyocarditis virus infected in CF-1 mouse assessed as host survival time ratio at 50 mg/kg, po administered via gavage at 28, 22, 2 hrs before and 2 hrs after virus inoculation; type: functional; settings: not given

First: CC1CCN(CCCC(=O)c2ccc3sc4ccc(C(=O)CCCN5CCC(C)CC5)cc4c3c2)CC1
Second: Cl.c1cc2sc3ccc(OCCCN4CCCCC4)cc3c2cc1OCCCN1CCCCC1
The Ratio of the first is higher: 1.06 for the first, 0.98 for the second.

First: CC(CN(C)C)Oc1ccc2oc3ccc(OC(C)CN(C)C)cc3c2c1.O=C(O)CC(O)(CC(=O)O)C(=O)O (stereo not given)
Second: CCn1c2ccc(C(=O)CCCN(C)C)cc2c2cc(C(=O)CCCN(C)C)ccc21.O=C(O)/C=C/C(=O)O
The Ratio of the first is lower: 0.84 for the first, 0.94 for the second.

First: Cl.O=C(CN1CCCCC1)c1ccc2oc3ccc(C(=O)CN4CCCCC4)cc3c2c1
Second: Cl.c1cc2sc3ccc(OCCN4CCCCC4)cc3c2cc1OCCN1CCCCC1
The Ratio of the first is lower: 0.87 for the first, 0.98 for the second.

Compared with CCn1c2ccc(OCCN3CCCCC3)cc2c2cc(OCCN3CCCCC3)ccc21.Cl, CCn1c2ccc(OCCN3CCOCC3)cc2c2cc(OCCN3CCOCC3)ccc21 is lower in Ratio: 1.09 for the first, 0.86 for the second.

First: CCN(CC)CC(=O)c1ccc2oc3ccc(C(=O)CN(CC)CC)cc3c2c1.Cl
Second: CCCCN(CCCC)CCCOc1ccc2sc3ccc(OCCCN(CCCC)CCCC)cc3c2c1.Cl
The Ratio of the first is higher: 0.96 for the first, 0.9 for the second.

system: Encephalomyocarditis virus; experiment: Antiviral activity against Encephalomyocarditis virus infected in CF-1 mouse assessed as host survival time ratio at 10 mg/kg, sc administered 28, 22, 2 hrs before and 2 hrs after virus inoculation; type: functional; settings: route subcutaneous

First: CC1CCN(CCCC(=O)c2ccc3sc4ccc(C(=O)CCCN5CCC(C)CC5)cc4c3c2)CC1
Second: Cl.c1cc2sc3ccc(OCCCN4CCCCC4)cc3c2cc1OCCCN1CCCCC1
The Ratio of the first is lower: 1.22 for the first, 1.34 for the second.

Compared with CC(CN(C)C)Oc1ccc2oc3ccc(OC(C)CN(C)C)cc3c2c1.O=C(O)CC(O)(CC(=O)O)C(=O)O (stereo not given), CCn1c2ccc(C(=O)CCCN(C)C)cc2c2cc(C(=O)CCCN(C)C)ccc21.O=C(O)/C=C/C(=O)O is higher in Ratio: 0.94 for the first, 1.42 for the second.

Compared with Cl.O=C(CN1CCCCC1)c1ccc2oc3ccc(C(=O)CN4CCCCC4)cc3c2c1, Cl.c1cc2sc3ccc(OCCN4CCCCC4)cc3c2cc1OCCN1CCCCC1 is lower in Ratio: 1.11 for the first, 1.09 for the second.

Compared with CCn1c2ccc(OCCN3CCCCC3)cc2c2cc(OCCN3CCCCC3)ccc21.Cl, CCn1c2ccc(OCCN3CCOCC3)cc2c2cc(OCCN3CCOCC3)ccc21 is lower in Ratio: 1.16 for the first, 0.92 for the second.

Compared with CCN(CC)CC(=O)c1ccc2oc3ccc(C(=O)CN(CC)CC)cc3c2c1.Cl, CCCCN(CCCC)CCCOc1ccc2sc3ccc(OCCCN(CCCC)CCCC)cc3c2c1.Cl is lower in Ratio: 0.96 for the first, 0.88 for the second.

system: Encephalomyocarditis virus; experiment: Antiviral activity against Encephalomyocarditis virus infected in CF-1 mouse assessed as host survival time ratio at 250 mg/kg, sc administered 28, 22, 2 hrs before and 2 hrs after virus inoculation; type: functional; settings: route subcutaneous

Going from CC1CCN(CCCC(=O)c2ccc3sc4ccc(C(=O)CCCN5CCC(C)CC5)cc4c3c2)CC1 to Cl.c1cc2sc3ccc(OCCCN4CCCCC4)cc3c2cc1OCCCN1CCCCC1, the Ratio falls from 1.69 to 0.77.

Compared with CC(CN(C)C)Oc1ccc2oc3ccc(OC(C)CN(C)C)cc3c2c1.O=C(O)CC(O)(CC(=O)O)C(=O)O (stereo not given), CCn1c2ccc(C(=O)CCCN(C)C)cc2c2cc(C(=O)CCCN(C)C)ccc21.O=C(O)/C=C/C(=O)O is higher in Ratio: 0.9 for the first, 1.44 for the second.

First: Cl.O=C(CN1CCCCC1)c1ccc2oc3ccc(C(=O)CN4CCCCC4)cc3c2c1
Second: Cl.c1cc2sc3ccc(OCCN4CCCCC4)cc3c2cc1OCCN1CCCCC1
The Ratio of the first is higher: 2.41 for the first, 1.3 for the second.

First: CCn1c2ccc(OCCN3CCCCC3)cc2c2cc(OCCN3CCCCC3)ccc21.Cl
Second: CCn1c2ccc(OCCN3CCOCC3)cc2c2cc(OCCN3CCOCC3)ccc21
The Ratio of the first is higher: 1.25 for the first, 1.02 for the second.

First: CCN(CC)CC(=O)c1ccc2oc3ccc(C(=O)CN(CC)CC)cc3c2c1.Cl
Second: CCCCN(CCCC)CCCOc1ccc2sc3ccc(OCCCN(CCCC)CCCC)cc3c2c1.Cl
The Ratio of the first is higher: 2.17 for the first, 0.96 for the second.

system: Encephalomyocarditis virus; experiment: Antiviral activity against Encephalomyocarditis virus infected in CF-1 mouse assessed as host survival time ratio at 50 mg/kg, sc administered 28, 22, 2 hrs before and 2 hrs after virus inoculation; type: functional; settings: route subcutaneous

First: CC1CCN(CCCC(=O)c2ccc3sc4ccc(C(=O)CCCN5CCC(C)CC5)cc4c3c2)CC1
Second: Cl.c1cc2sc3ccc(OCCCN4CCCCC4)cc3c2cc1OCCCN1CCCCC1
The Ratio of the first is lower: 1.84 for the first, 1.94 for the second.

First: CC(CN(C)C)Oc1ccc2oc3ccc(OC(C)CN(C)C)cc3c2c1.O=C(O)CC(O)(CC(=O)O)C(=O)O (stereo not given)
Second: CCn1c2ccc(C(=O)CCCN(C)C)cc2c2cc(C(=O)CCCN(C)C)ccc21.O=C(O)/C=C/C(=O)O
The Ratio of the first is lower: 1.08 for the first, 1.63 for the second.

Compared with Cl.O=C(CN1CCCCC1)c1ccc2oc3ccc(C(=O)CN4CCCCC4)cc3c2c1, Cl.c1cc2sc3ccc(OCCN4CCCCC4)cc3c2cc1OCCN1CCCCC1 is higher in Ratio: 1.12 for the first, 1.57 for the second.

First: CCn1c2ccc(OCCN3CCCCC3)cc2c2cc(OCCN3CCCCC3)ccc21.Cl
Second: CCn1c2ccc(OCCN3CCOCC3)cc2c2cc(OCCN3CCOCC3)ccc21
The Ratio of the first is higher: 1.32 for the first, 1.08 for the second.

Compared with CCN(CC)CC(=O)c1ccc2oc3ccc(C(=O)CN(CC)CC)cc3c2c1.Cl, CCCCN(CCCC)CCCOc1ccc2sc3ccc(OCCCN(CCCC)CCCC)cc3c2c1.Cl is lower in Ratio: 1.35 for the first, 1.14 for the second.

system: Encephalomyocarditis virus; experiment: Antiviral activity against Encephalomyocarditis virus infected in CF-1 mouse assessed as host survival time ratio at 250 mg/kg, po administered via gavage as single dose at 22 to 28 hrs before virus inoculation; type: functional; settings: not given

Going from CC1CCN(CCCC(=O)c2ccc3sc4ccc(C(=O)CCCN5CCC(C)CC5)cc4c3c2)CC1 to Cl.c1cc2sc3ccc(OCCCN4CCCCC4)cc3c2cc1OCCCN1CCCCC1, the Ratio falls from 1.1 to 1.06.

First: CC(CN(C)C)Oc1ccc2oc3ccc(OC(C)CN(C)C)cc3c2c1.O=C(O)CC(O)(CC(=O)O)C(=O)O (stereo not given)
Second: CCn1c2ccc(C(=O)CCCN(C)C)cc2c2cc(C(=O)CCCN(C)C)ccc21.O=C(O)/C=C/C(=O)O
The Ratio of the first is lower: 0.84 for the first, 1.06 for the second.

First: Cl.O=C(CN1CCCCC1)c1ccc2oc3ccc(C(=O)CN4CCCCC4)cc3c2c1
Second: Cl.c1cc2sc3ccc(OCCN4CCCCC4)cc3c2cc1OCCN1CCCCC1
The Ratio of the first is higher: 1.41 for the first, 1.02 for the second.

Going from CCn1c2ccc(OCCN3CCCCC3)cc2c2cc(OCCN3CCCCC3)ccc21.Cl to CCn1c2ccc(OCCN3CCOCC3)cc2c2cc(OCCN3CCOCC3)ccc21, the Ratio falls from 1.09 to 0.88.

First: CCN(CC)CC(=O)c1ccc2oc3ccc(C(=O)CN(CC)CC)cc3c2c1.Cl
Second: CCCCN(CCCC)CCCOc1ccc2sc3ccc(OCCCN(CCCC)CCCC)cc3c2c1.Cl
The Ratio of the first is higher: 1.65 for the first, 0.88 for the second.
